ChEMBL document CHEMBL1201862, “PubChem BioAssay data set” (2004)
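The compound was tested at five concentrations on cells cultured in 96-well plates, with a 48-hour exposure period. Abbreviation: GI50, concentration required for 50% inhibition of growth.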 The source made the active and inactive calls. Rule as the data show it: active = GI50 up to about 1.1 µM and inactive = higher.

Legend:
Test in all cases: inhibition of tumour cell growth, NCI panel, 48 h
COLO 205 = tested on: COLO 205
EKVX = tested on: EKVX
HCC 2998 = tested on: HCC 2998
HOP-92 = tested on: HOP-92
HT-29 = tested on: HT-29
K562 = tested on: K562
MDA-MB-435 = tested on: MDA-MB-435
MDA-N = tested on: MDA-N
Malme-3M = tested on: Malme-3M
NCI-H23 = tested on: NCI-H23
NCI-H460 = tested on: NCI-H460
OVCAR-8 = tested on: OVCAR-8
RPMI-8226 = tested on: RPMI-8226
SK-MEL-28 = tested on: SK-MEL-28
SK-MEL-2 = tested on: SK-MEL-2
SNB-19 = tested on: SNB-19
SW-620 = tested on: SW-620
TK-10 = tested on: TK-10
U-251 = tested on: U-251
OVCAR-5 = tested on: OVCAR-5

SMILES | GI50 (COLO 205) | GI50 (EKVX) | GI50 (HCC 2998) | GI50 (HOP-92) | GI50 (HT-29) | GI50 (K562) | GI50 (MDA-MB-435) | GI50 (MDA-N) | GI50 (Malme-3M) | GI50 (NCI-H23) | GI50 (NCI-H460) | GI50 (OVCAR-8) | GI50 (RPMI-8226) | GI50 (SK-MEL-28) | GI50 (SK-MEL-2) | GI50 (SNB-19) | GI50 (SW-620) | GI50 (TK-10) | GI50 (U-251) | GI50 (OVCAR-5)
CCOc1c(Br)cc(Br)cc1C=C(C#N)C#N | > 10 µM (inactive) | > 10 µM (inactive) | > 10 µM (inactive) | 4.19 µM (inactive) | > 10 µM (inactive) | 1.16 µM (inactive) | 4.18 µM (inactive) | 1.83 µM (inactive) | > 10 µM (inactive) | > 10 µM (inactive) | > 10 µM (inactive) | 3.42 µM (inactive) | 0.942 µM (active) | 8.26 µM (inactive) | > 10 µM (inactive) | 5.73 µM (inactive) | 2.23 µM (inactive) | 5.43 µM (inactive) | 3.52 µM (inactive) | 
c1ccc(SCCc2ccncc2)cc1 | > 100 µM (inactive) | 46 µM (inactive) | > 100 µM (inactive) | 45.7 µM (inactive) | > 100 µM (inactive) | 49.5 µM (inactive) | > 100 µM (inactive) | > 100 µM (inactive) | > 100 µM (inactive) | 67.6 µM (inactive) | > 100 µM (inactive) | > 100 µM (inactive) | 20.5 µM (inactive) | > 100 µM (inactive) | > 100 µM (inactive) | > 100 µM (inactive) | > 100 µM (inactive) | > 100 µM (inactive) | > 100 µM (inactive) | > 100 µM (inactive)
CCCCOCCOC1=CC(=O)c2c(O)ccc(O)c2C1=O | 1.14 µM (inactive) | 1.69 µM (inactive) | 1.88 µM (inactive) | 2.56 µM (inactive) | 1.67 µM (inactive) | 2 µM (inactive) | 0.185 µM (active) | 0.185 µM (active) | 0.24 µM (active) | 1.7 µM (inactive) | 1.82 µM (inactive) |  | 2.91 µM (inactive) | 1.62 µM (inactive) | 1.69 µM (inactive) | 1.75 µM (inactive) | 1.45 µM (inactive) | 3.1 µM (inactive) | 1.7 µM (inactive) | 
N#CC1(C#N)NC(c2cccnc2)C(C#N)(C#N)NC1c1cccnc1 (centres undefined) | > 100 µM (inactive) | > 100 µM (inactive) | > 100 µM (inactive) | > 100 µM (inactive) | > 100 µM (inactive) | > 100 µM (inactive) | > 100 µM (inactive) | > 100 µM (inactive) | > 100 µM (inactive) | > 100 µM (inactive) |  | > 100 µM (inactive) | > 100 µM (inactive) | > 100 µM (inactive) | > 100 µM (inactive) |  | > 100 µM (inactive) | > 100 µM (inactive) | > 100 µM (inactive) | > 100 µM (inactive)
O=c1[nH]c(=S)c2cc3c(=S)[nH]c(=O)n(CCO)c3nc2n1CCO | > 100 µM (inactive) | > 100 µM (inactive) | > 100 µM (inactive) | > 100 µM (inactive) |  | > 100 µM (inactive) | > 100 µM (inactive) | > 100 µM (inactive) | > 100 µM (inactive) | > 100 µM (inactive) | > 100 µM (inactive) | > 100 µM (inactive) | > 100 µM (inactive) | > 100 µM (inactive) | > 100 µM (inactive) | > 100 µM (inactive) | > 100 µM (inactive) | > 100 µM (inactive) | > 100 µM (inactive) | > 100 µM (inactive)
Cc1ccc(/N=N\c2c(O)c(S(=O)(=O)O)cc3cc(S(=O)(=O)O)ccc23)c(C)c1 | > 100 µM (inactive) | > 100 µM (inactive) | > 100 µM (inactive) | > 100 µM (inactive) | > 100 µM (inactive) | > 100 µM (inactive) | > 100 µM (inactive) | > 100 µM (inactive) | > 100 µM (inactive) | > 100 µM (inactive) | > 100 µM (inactive) | > 100 µM (inactive) | > 100 µM (inactive) | > 100 µM (inactive) | > 100 µM (inactive) | > 100 µM (inactive) | > 100 µM (inactive) | > 100 µM (inactive) | > 100 µM (inactive) | > 100 µM (inactive)
CC(=O)O[C@H]1C(=O)[C@@]2(C)[C@H]([C@H](OC(=O)c3ccccc3)[C@]3(O)C[C@H](OC(=O)[C@H](O)[C@@H](NC(=O)CC(C)C)c4ccccc4)C(C)=C1C3(C)C)[C@]1(OC(C)=O)CO[C@@H]1C[C@@H]2O | 0.00178 µM (active) | 0.428 µM (active) | 0.00303 µM (active) | 0.508 µM (active) | < 0.001 µM (active) | 0.00179 µM (active) | < 0.001 µM (active) | 0.0906 µM (active) | 0.0135 µM (active) | 0.00321 µM (active) | 0.00334 µM (active) | 0.00548 µM (active) | < 0.001 µM (active) | 0.00318 µM (active) | 0.00239 µM (active) | 0.607 µM (active) | 0.00289 µM (active) | 0.0383 µM (active) | 0.00879 µM (active) | 0.226 µM (active)
